Data: ChEMBL document CHEMBL4138197, “Design, synthesis and pharmacological evaluation of N-(5-chloro-2,4-dihydroxybenzoyl)-(R)-N-arylmethyl-1,2,3,4-tetrahydro-3-isoquinolinecarboxamides as potent Hsp90 inhibitors” (Eur J Med Chem, 2018)

How the values were obtained:
A549 = assay: Antiproliferative activity against human A549 cells after 72 hrs by SRB assay; type: functional, cell-based; conditions: A549, 72 h
MDA-MB-231 = assay: Antiproliferative activity against human MDA-MB-231 cells after 72 hrs by SRB assay; type: functional, cell-based; conditions: MDA-MB-231, 72 h

| Structure (SMILES) | IC50 (A549) [µM] | IC50 (MDA-MB-231) [µM] |
| --- | --- | --- |
| O=C(NCc1cccc([N+](=O)[O-])c1)[C@H]1Cc2ccccc2CN1C(=O)c1cc(Cl)c(O)cc1O | 0.65 | 0.8 |
| N#Cc1ccc(CNC(=O)[C@H]2Cc3ccccc3CN2C(=O)c2cc(Cl)c(O)cc2O)cc1 | 0.35 | 0.35 |
| COc1ccccc1CNC(=O)[C@H]1Cc2ccccc2CN1C(=O)c1cc(Cl)c(O)cc1O | 1.16 | 0.95 |
| O=C(NCc1ccc(Cl)cc1)[C@H]1Cc2ccccc2CN1C(=O)c1cc(Cl)c(O)cc1O | 0.75 | 0.78 |
| COc1ccc(CNC(=O)[C@H]2Cc3ccccc3CN2C(=O)c2cc(Cl)c(O)cc2O)cc1 | 1.06 | 0.9 |
| O=C(NCc1ccco1)[C@H]1Cc2ccccc2CN1C(=O)c1cc(Cl)c(O)cc1O | 0.89 | 0.5 |
| NS(=O)(=O)c1ccc(CNC(=O)[C@H]2Cc3ccccc3CN2C(=O)c2cc(Cl)c(O)cc2O)cc1 | > 10 | > 10 |
| O=C(NCc1ccc(Cl)c(Cl)c1)[C@H]1Cc2ccccc2CN1C(=O)c1cc(Cl)c(O)cc1O | 1.46 | 1.61 |
| O=C(NCc1ccccc1)[C@H]1Cc2ccccc2CN1C(=O)c1cc(Cl)c(O)cc1O | 1.67 | 1.12 |
| COc1ccc(CNC(=O)[C@H]2Cc3ccccc3CN2C(=O)c2cc(Cl)c(O)cc2O)c(OC)c1 | 1.41 | 1.16 |
| Cc1ccc(CNC(=O)[C@H]2Cc3ccccc3CN2C(=O)c2cc(Cl)c(O)cc2O)cc1 | 0.53 | 0.6 |
| O=C(NCc1ccccn1)[C@H]1Cc2ccccc2CN1C(=O)c1cc(Cl)c(O)cc1O | 0.89 | 0.63 |
| COC1=C2C[C@@H](C)C[C@H](OC)[C@H](O)[C@@H](C)/C=C(\C)[C@H](OC(N)=O)[C@@H](OC)/C=C\C=C(/C)C(=O)NC(=CC1=O)C2=O [GELDANAMYCIN] | 0.1 | 0.06 |
| O=C(NCc1ccc2c(c1)CCO2)[C@H]1Cc2ccccc2CN1C(=O)c1cc(Cl)c(O)cc1O | 1.06 | 0.9 |
| N#Cc1ccc(CNC(=O)[C@H]2Cc3ccccc3CN2C(=O)c2cc(Cl)c(O)cc2O)cn1 | 2.73 | 2.08 |
| O=C(NCc1ccc(Cl)cc1Cl)[C@H]1Cc2ccccc2CN1C(=O)c1cc(Cl)c(O)cc1O | 0.65 | 0.95 |
| O=C(NCc1cccc(Cl)c1Cl)[C@H]1Cc2ccccc2CN1C(=O)c1cc(Cl)c(O)cc1O | 1.11 | 2.11 |
| Cc1ccccc1CNC(=O)[C@H]1Cc2ccccc2CN1C(=O)c1cc(Cl)c(O)cc1O | 0.65 | 1.46 |
| COc1ccc(CNC(=O)[C@H]2Cc3ccccc3CN2C(=O)c2cc(Cl)c(O)cc2O)cc1OC | 1.71 | 1.66 |
| N#Cc1ccc(CNC(=O)[C@H]2Cc3ccccc3CN2C(=O)c2cc(Cl)c(O)cc2O)nc1 | 0.62 | 0.53 |
| N#Cc1cccc(CNC(=O)[C@H]2Cc3ccccc3CN2C(=O)c2cc(Cl)c(O)cc2O)c1 | 0.5 | 0.65 |
| O=C(NCc1cccnc1)[C@H]1Cc2ccccc2CN1C(=O)c1cc(Cl)c(O)cc1O | 1.51 | 0.82 |
| Cc1cccc(CNC(=O)[C@H]2Cc3ccccc3CN2C(=O)c2cc(Cl)c(O)cc2O)c1 | 0.96 | 1.76 |
| O=C(NCc1ccc2c(c1)OCO2)[C@H]1Cc2ccccc2CN1C(=O)c1cc(Cl)c(O)cc1O | 0.65 | 0.7 |

Next, values leading:

| IC50 (A549) [µM] | IC50 (MDA-MB-231) [µM] | Structure (SMILES) |
| --- | --- | --- |
| 1.46 | 1.71 | O=C(NCc1ccccc1Cl)[C@H]1Cc2ccccc2CN1C(=O)c1cc(Cl)c(O)cc1O |
| > 10 | 3.87 | CS(=O)(=O)c1cccc(CNC(=O)[C@H]2Cc3ccccc3CN2C(=O)c2cc(Cl)c(O)cc2O)c1 |
| 2.16 | 2.26 | O=C(NCc1ccc(OC(F)(F)F)cc1)[C@H]1Cc2ccccc2CN1C(=O)c1cc(Cl)c(O)cc1O |
| 2.76 | 2.41 | O=C(NCc1cccc2ccccc12)[C@H]1Cc2ccccc2CN1C(=O)c1cc(Cl)c(O)cc1O |
| 2.61 | 2.16 | COc1cc(CNC(=O)[C@H]2Cc3ccccc3CN2C(=O)c2cc(Cl)c(O)cc2O)ccc1O |
| 2.66 | 2.21 | COc1cc(CNC(=O)[C@H]2Cc3ccccc3CN2C(=O)c2cc(Cl)c(O)cc2O)cc(OC)c1OC |
| 0.45 | 0.4 | CN(C)c1ccc(CNC(=O)[C@H]2Cc3ccccc3CN2C(=O)c2cc(Cl)c(O)cc2O)cc1 |
| 2.66 | 0.95 | CS(=O)(=O)c1ccc(CNC(=O)[C@H]2Cc3ccccc3CN2C(=O)c2cc(Cl)c(O)cc2O)cc1 |
| 1.81 | 1.96 | O=C(NCc1cccc(Cl)c1)[C@H]1Cc2ccccc2CN1C(=O)c1cc(Cl)c(O)cc1O |
| 0.54 | 0.4 | O=C(NCc1ccc([N+](=O)[O-])cc1)[C@H]1Cc2ccccc2CN1C(=O)c1cc(Cl)c(O)cc1O |
| 1.56 | 1.81 | COc1cccc(CNC(=O)[C@H]2Cc3ccccc3CN2C(=O)c2cc(Cl)c(O)cc2O)c1 |
